According to PMC9763333, “In vitro characterization of immune modulating drug-eluting immunobeads towards transarterial embolization in cancer” (Scientific Reports, 2022):
Several values for one entry are separate records, joined by “and”; a condition that tells them apart may be missing. Identical values can stand only once. Like-named read-outs stand apart in the source and are kept apart here.

Tests used:
[1] = Washing of drug-loaded beads with deionized water and microscopic appearance; assay type: physicochemical
Protocol: (§1) Drug loading was performed in triplicate as previously reported[45] with slight modifications. […] Washing of beads is often a critical step in drug release studies as any drug left unbound to the beads affects the release profile and exaggerates the early burst release. […] However, washing was discontinued for TLR drugs as drug was continually observed even after multiple washes. […] The amount of drug loaded at the specified time points was calculated by subtracting the amount of drug remaining from the initial amount of drug in the loading solution and the cumulative amount of drug withdrawn for sampling. The maximum drug loaded in the beads was calculated once no further change in the concentration in the loading solution could be measured and before washing the beads. The relative percent drug loaded was defined as the maximum amount of drug loaded as a percent of the amount of SO3^- ions available in the beads on a molar basis using the following formula and the results are presented as the mean ± SD.

[2] = Drug loading into DC Bead LUMI; assay type: physicochemical; settings: for Relative percent drug loaded in DC Bead LUMI over time: listed as DSR; for Relative percent drug loaded (maximum, percent of SO3− available on a molar basis): mean (n = 3)
Protocol: as §1, with “DC Bead LUMI was analyzed for its elemental composition by MEDAC Inc. […] Drug” for “Drug”

[3] = pKa measurement by triple titration in methanol–water co-solvent with Yasuda-Shedlovsky extrapolation; assay type: physicochemical; settings: for pKa: methanol–water co-solvent, aqueous value by Yasuda-Shedlovsky extrapolation; for psKa1 / psKa2 / psKa3: methanol–water
Protocol: pKa measurements were performed by Pion Inc, UK Ltd using known methods as previously reported[47]–[50] or calculated by using software MoKa (Molecular Discovery, Borehamwood, Hertfordshire, UK, https://www.moldiscovery.com/software/moka/#references) or directly obtained from the literature. For GARD and DSR 6434, a triple titration was carried out under methanol–water co-solvent conditions from pH 2.0–12.0 at concentrations of 2.3–1.3 mM (the methanol mixing ratio varied from 49.0 to 28.9% w/w) and 1.5–0.9 mM (the methanol mixing ratio varied from 49.6 to 29.1% w/w), respectively.

[4] = Drug release from DC Bead LUMI in saline; assay type: physicochemical; settings: for release in saline from DC Bead LUMI after multiple washes in deionized water: single replicates, listed as DSR
Protocol: […] Briefly, drug-loaded DC Bead LUMI or LC Bead (62.5 µL) were placed in vessels with 50 mL of saline ([…], pH 7.4) and were agitated with upright rocking motion at a set maximum rocking speed of 10 (70 rpm) for 144 h at 37 °C using Ward's® Rotating Mixer. At scheduled time intervals identical to the loading time points, 1 mL of release media was withdrawn and used for drug quantification. To maintain 50 mL total elution volume, 1 mL of fresh saline pre heated to 37 °C was replaced at each timepoint. […] 2.4. The cumulative amount of drug released at each time point was calculated by multiplying the concentration of each sample aliquot by the total volume (50 mL) of release media and adding the sum of the amount of drug removed for sampling at prior time points. […] The 50 mL volume was chosen to ensure infinite sink conditions where the maximum possible concentration of eluted drug would be at least 10 times more dilute than the maximum solubility. This ensures the rate of release is not affected by solution concentration but is only a function of interactions of the bead, drug, and saline.

[5] = Drug solubilization by salt formation in acid; assay type: physicochemical; settings: T in °C in parentheses in the cell (20.1 or 21.1)
Protocol: The base form of each drug was suspended in deionized water and titrated with 0.1 N hydrochloric acid (Fisher Scientific, Hampton, NH) while stirring until all the base was solubilized and the volume adjusted to a final concentration of 2.5 mg/mL. The resulting solution was frozen, then lyophilized to yield solid drug-hydrochloride salt or used in its solubilized form for loading into DC Bead LUMI. […] Doxorubicin.HCl was readily solubilized and used without modification. […] A ZORBAX Eclipse Plus C8 reversed-phase column (Agilent) and UV detector at wavelength of 230 nm were used for GS-9620 analysis. The decomposition product of GS-9620 was analyzed with reversed phase high-performance liquid chromatography (Rp-HPLC) and LC/MS.

[6] = design: method as in PMID 28188808; settings: 0.08 mmol irinotecan; cited from earlier work

Q: With `CCCCNc1nc(N)c2[nH]c(=O)n(Cc3ccc(OCCN(C)C)nc3)c2n1` [DSR 6434] as the compound, how does the “removal of drug from beads by repeated washing with deionized water” value ([1]; DC Bead LUMI) read?
A: Its value is “partially removed”.

Q: And the “aggregation of drug during washing / elution” value ([1]; deionized water and saline, microscopy)?
A: Its value is “absence of aggregated”.

Q: What about the “Relative percent drug loaded in DC Bead LUMI over time” value ([2]; 5 min, single replicates) of the same compound?
A: The value was 39.5677% and 47.7348% and 48.9285%.

Q: And the “Relative percent drug loaded in DC Bead LUMI over time” value ([2]; 15 min, single replicates)?
A: The value was 41.6488% and 50.8205% and 51.9687%.

Q: And the “Relative percent drug loaded in DC Bead LUMI over time” value ([2]; 30 min, single replicates)?
A: Its value is 42.6689% and 54.1338% and 55.2332%.

Q: And the “Relative percent drug loaded in DC Bead LUMI over time” value ([2]; 45 min, single replicates)?
A: Its value is 48.2468% and 57.0357% and 58.0924%.

Q: And the “Relative percent drug loaded in DC Bead LUMI over time” value ([2]; 60 min, single replicates)?
A: The value was 49.3314% and 55.3694% and 56.4506%.

Q: What about the “Relative percent drug loaded in DC Bead LUMI over time” value ([2]; 120 min, single replicates) of the same compound?
A: The value was 50.4129% and 60.3547% and 61.3625%.

Q: What about the “Relative percent drug loaded in DC Bead LUMI over time” value ([2]; 180 min, single replicates) of the same compound?
A: The value was 49.4039% and 56.8373% and 57.8969%.

Q: What about the “Relative percent drug loaded in DC Bead LUMI over time” value ([2]; 240 min, single replicates) of the same compound?
A: Its value is 49.4386% and 53.9704% and 55.0722%.

Q: And the “Relative percent drug loaded in DC Bead LUMI over time” value ([2]; 300 min, single replicates)?
A: The value was 48.7119% and 56.2576% and 57.3257%.

Q: And the “Relative percent drug loaded in DC Bead LUMI over time” value ([2]; 360 min, single replicates)?
A: The value was 47.0211% and 54.6141% and 55.7064%.

Q: What about the “Relative percent drug loaded in DC Bead LUMI over time” value ([2]; 420 min, single replicates) of the same compound?
A: The value was 47.0555% and 55.952% and 57.0246%.

Q: And the “Relative percent drug loaded in DC Bead LUMI over time” value ([2]; 480 min, single replicates)?
A: The value was 47.3643% and 55.2849% and 56.3673%.

Q: And the “Relative percent drug loaded in DC Bead LUMI over time” value ([2]; 1440 min, single replicates)?
A: Its value is 46.9195% and 55.3847% and 56.4657%.

Q: And the “Relative percent drug loaded in DC Bead LUMI over time” value ([2]; 2880 min, single replicates)?
A: Its value is 43.3022% and 55.4842% and 56.5637%.

Q: And the “Relative percent drug loaded in DC Bead LUMI over time” value ([2]; 4320 min, single replicates)?
A: The value was 46.6711% and 54.7234% and 55.8141%.

Q: And the “Relative percent drug loaded in DC Bead LUMI over time” value ([2]; 8640 min, single replicates)?
A: Its value is 45.7549% and 53.8658% and 54.9692%.

Q: And the “loading behaviour” value ([2]; DC Bead LUMI)?
A: Its value is “Fast loading”.

Q: And the “Relative percent drug loaded (maximum, percent of SO3− available on a molar basis)” value ([2]; DC Bead LUMI)?
A: The value was 57%.

Q: And the “Relative percent drug loaded (maximum, percent of SO3− available on a molar basis)” value ([2]; DC Bead LUMI, listed as DSR-6434)?
A: The value was 57.38%.

Q: What about the “equivalent of drug loaded to sulfonated bead” value ([2]; DC Bead LUMI, mean ± SD) of the same compound?
A: The value was 0.16 ± 0.02 mM drug/ml beads.

Q: What about the Maximum drug loaded ([2]; DC Bead LUMI, mean ± SD, n = 3, base form except Dox (salt form)) of the same compound?
A: The Maximum drug loaded was 65.95 ± 6.96 mg drug/ml beads.

Q: What about the “Maximum drug loaded (Triplicate), %” value ([2]; DC Bead LUMI, single replicates) of the same compound?
A: Its value is 50.4129% and 60.3547% and 61.3625%.

Q: What about the “Drug: sulfonate” value ([2]; molar ratio at maximum loading, DC Bead LUMI) of the same compound?
A: Its value is 0.574.

Q: And the “Theoretical maximum loading level based on SO3− contents” value ([2]; per mL DC Bead LUMI, assuming 1:1 drug to sulfonate)?
A: Its value is 114.94 mg.

Q: What about the pKa ([3]; read-out: pKa (first, measured)) of the same compound?
A: Its pKa is 4.58.

Q: And the pKa ([3]; read-out: pKa (second, measured))?
A: Its pKa is 8.5.

Q: What about the pKa ([3]; read-out: pKa (third, measured)) of the same compound?
A: Its pKa is 9.94.

Q: And the psKa1 ([3]; dielectric constant 56.6)?
A: Its psKa1 is 4.18.

Q: And the psKa2 ([3]; dielectric constant 56.6)?
A: Its psKa2 is 8.14.

Q: And the psKa3 ([3]; dielectric constant 56.6)?
A: The psKa3 was 10.7073.

Q: What about the psKa1 ([3]; dielectric constant 61.4) of the same compound?
A: The psKa1 was 4.3.

Q: What about the psKa2 ([3]; dielectric constant 61.4) of the same compound?
A: The psKa2 was 8.24.

Q: And the psKa3 ([3]; dielectric constant 61.4)?
A: The psKa3 was 10.5143.

Q: And the psKa1 ([3]; dielectric constant 65.9)?
A: The psKa1 was 4.39.

Q: And the psKa2 ([3]; dielectric constant 65.9)?
A: The psKa2 was 8.34.

Q: What about the psKa3 ([3]; dielectric constant 65.9) of the same compound?
A: The psKa3 was 10.3389.

Q: And the “release in saline from DC Bead LUMI after multiple washes in deionized water” value (shortened to “release in saline from DC Bead LUMI”) ([4]; 5 min)?
A: Its value is 11.6669 mg/mL of beads and 21.0618 mg/mL of beads and 12.3038 mg/mL of beads.

Q: What about the “release in saline from DC Bead LUMI” value ([4]; 15 min) of the same compound?
A: The value was 12.2718 mg/mL of beads and 15.5382 mg/mL of beads and 12.6826 mg/mL of beads.

Q: And the “release in saline from DC Bead LUMI” value ([4]; 30 min)?
A: Its value is 12.9372 mg/mL of beads and 16.3714 mg/mL of beads and 14.5502 mg/mL of beads.

Q: What about the “release in saline from DC Bead LUMI” value ([4]; 45 min) of the same compound?
A: Its value is 13.4518 mg/mL of beads and 17.0028 mg/mL of beads and 14.9641 mg/mL of beads.

Q: What about the “release in saline from DC Bead LUMI” value ([4]; 60 min) of the same compound?
A: Its value is 13.786 mg/mL of beads and 17.7202 mg/mL of beads and 15.5663 mg/mL of beads.

Q: And the “release in saline from DC Bead LUMI” value ([4]; 120 min)?
A: Its value is 14.3607 mg/mL of beads and 18.3129 mg/mL of beads and 16.228 mg/mL of beads.

Q: What about the “release in saline from DC Bead LUMI” value ([4]; 180 min) of the same compound?
A: The value was 16.0563 mg/mL of beads and 19.309 mg/mL of beads and 16.8971 mg/mL of beads.

Q: And the “release in saline from DC Bead LUMI” value ([4]; 240 min)?
A: Its value is 15.1532 mg/mL of beads and 19.1241 mg/mL of beads and 17.0694 mg/mL of beads.

Q: What about the “release in saline from DC Bead LUMI” value ([4]; 300 min) of the same compound?
A: The value was 15.5267 mg/mL of beads and 19.8574 mg/mL of beads and 17.3452 mg/mL of beads.

Q: What about the “release in saline from DC Bead LUMI” value ([4]; 360 min) of the same compound?
A: The value was 16.1146 mg/mL of beads and 19.776 mg/mL of beads and 18.2574 mg/mL of beads.

Q: What about the “release in saline from DC Bead LUMI” value ([4]; 420 min) of the same compound?
A: The value was 15.8596 mg/mL of beads and 19.8188 mg/mL of beads and 17.9345 mg/mL of beads.

Q: And the “release in saline from DC Bead LUMI” value ([4]; 480 min)?
A: Its value is 16.4167 mg/mL of beads and 20.0149 mg/mL of beads and 17.9173 mg/mL of beads.

Q: And the “release in saline from DC Bead LUMI” value ([4]; 1440 min)?
A: The value was 16.847 mg/mL of beads and 20.6066 mg/mL of beads and 18.2918 mg/mL of beads.

Q: What about the “release in saline from DC Bead LUMI” value ([4]; 2880 min) of the same compound?
A: The value was 17.1212 mg/mL of beads and 20.6727 mg/mL of beads and 18.4291 mg/mL of beads.

Q: And the “release in saline from DC Bead LUMI” value ([4]; 4320 min)?
A: The value was 17.0504 mg/mL of beads and 20.4416 mg/mL of beads and 18.5897 mg/mL of beads.

Q: And the “release in saline from DC Bead LUMI” value ([4]; 8640 min)?
A: Its value is 16.3092 mg/mL of beads and 19.4828 mg/mL of beads and 17.2615 mg/mL of beads.

Q: And the “release behaviour in saline” value ([4]; DC Bead LUMI)?
A: The value was “rapid release”.

Q: What about the “pH at which each drug dissolved for loading” value [5] of the same compound?
A: The value was 1.65 (20.1).

Q: With `CCc1c2c(nc3ccc(OC(=O)N4CCC(N5CCCCC5)CC4)cc13)-c1cc3c(c(=O)n1C2)COC(=O)[C@]3(O)CC` [irinotecan] as the compound, how does the “time to load drug to DC Bead LUMI” value [6] read?
A: Its value is no more than 10 min.
